Reference: ChEMBL document CHEMBL1201862, “PubChem BioAssay data set” (2004)
Activity calls are given as the source filed them.

Columns and labels:
Type in all cases: functional
[1] = Luminescent dose response cell-based high throughput screening assay for inhibitors of the Janus kinase 2 mutant JAK2V617F. [Related pubchem assays: 1446 (Primary screen.), 1521 (Confirmation assay.), 1486 (Counter screen.)]
[2] = Intein inhibitors as potential Tuberculosis drugs, a cytotoxicity screen. [Related pubchem assays (depositor defined):AID2221, AID2223, AID434968, AID435010, AID449749, AID449750, AID489010]
[3] = target: T1, Replicative DNA helicase DnaB (Mycobacterium tuberculosis, UniProt P9WMR3); experiment: DnaB intein splicing inhibitors, dose response, biochemical, cell-free fluorescence (AID 449749)
T1 sequence (P9WMR3 whole entry): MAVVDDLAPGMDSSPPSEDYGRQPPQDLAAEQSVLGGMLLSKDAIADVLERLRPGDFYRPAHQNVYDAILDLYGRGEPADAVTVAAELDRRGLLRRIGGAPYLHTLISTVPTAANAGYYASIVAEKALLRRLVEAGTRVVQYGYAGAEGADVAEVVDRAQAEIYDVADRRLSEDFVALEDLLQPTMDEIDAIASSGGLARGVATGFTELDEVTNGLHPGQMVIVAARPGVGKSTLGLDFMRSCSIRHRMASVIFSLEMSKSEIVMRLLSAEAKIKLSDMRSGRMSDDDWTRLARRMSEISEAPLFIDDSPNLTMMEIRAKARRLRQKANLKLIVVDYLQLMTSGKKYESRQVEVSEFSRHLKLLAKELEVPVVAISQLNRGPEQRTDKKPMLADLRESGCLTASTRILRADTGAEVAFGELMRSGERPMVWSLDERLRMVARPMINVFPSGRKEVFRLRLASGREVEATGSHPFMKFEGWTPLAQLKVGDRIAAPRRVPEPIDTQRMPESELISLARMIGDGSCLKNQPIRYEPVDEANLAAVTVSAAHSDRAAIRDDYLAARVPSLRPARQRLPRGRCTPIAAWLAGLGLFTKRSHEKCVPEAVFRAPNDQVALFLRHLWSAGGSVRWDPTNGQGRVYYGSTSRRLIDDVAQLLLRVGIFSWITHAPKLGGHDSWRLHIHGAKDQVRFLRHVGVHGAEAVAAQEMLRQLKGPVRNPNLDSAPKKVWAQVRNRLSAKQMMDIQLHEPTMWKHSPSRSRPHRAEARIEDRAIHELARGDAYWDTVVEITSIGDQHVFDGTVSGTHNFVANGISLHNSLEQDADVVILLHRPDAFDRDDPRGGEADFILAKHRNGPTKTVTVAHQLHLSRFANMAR

[4] = target: T2, Protein RecA (Mycobacterium tuberculosis, UniProt P9WHJ3); experiment: Fluorescence Cell-Free Homogeneous Dose Retest to Identify Inhibitors of RecA-Intein Splicing Activity. [Related pubchem assays (depositor defined):AID2097, AID2223, AID489010, AID492950]
T2 sequence (P9WHJ3 whole entry): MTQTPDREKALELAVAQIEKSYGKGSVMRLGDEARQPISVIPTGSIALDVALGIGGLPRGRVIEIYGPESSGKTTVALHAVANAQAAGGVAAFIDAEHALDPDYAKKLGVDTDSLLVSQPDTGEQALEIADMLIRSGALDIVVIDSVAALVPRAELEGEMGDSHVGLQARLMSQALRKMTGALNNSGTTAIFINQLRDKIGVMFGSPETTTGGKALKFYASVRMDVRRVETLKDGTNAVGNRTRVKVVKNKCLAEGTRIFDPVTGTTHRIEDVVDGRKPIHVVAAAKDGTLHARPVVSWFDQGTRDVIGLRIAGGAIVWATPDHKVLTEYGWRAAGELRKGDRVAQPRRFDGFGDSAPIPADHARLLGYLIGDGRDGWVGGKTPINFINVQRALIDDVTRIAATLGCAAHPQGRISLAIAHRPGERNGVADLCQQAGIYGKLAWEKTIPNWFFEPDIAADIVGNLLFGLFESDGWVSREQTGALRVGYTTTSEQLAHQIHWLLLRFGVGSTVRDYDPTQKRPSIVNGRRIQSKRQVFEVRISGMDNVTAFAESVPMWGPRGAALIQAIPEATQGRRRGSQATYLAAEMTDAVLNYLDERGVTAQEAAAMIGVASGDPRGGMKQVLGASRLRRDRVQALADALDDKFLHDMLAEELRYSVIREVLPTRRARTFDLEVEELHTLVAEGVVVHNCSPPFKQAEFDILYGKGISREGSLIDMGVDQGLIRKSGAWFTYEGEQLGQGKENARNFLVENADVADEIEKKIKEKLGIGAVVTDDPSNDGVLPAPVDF

[5] = toxicity toward cultured mammalian cells – cell-based, plate reader, cherry-pick samples, cytotoxicity control, dose response (AID 504397)
[6] = target: T3, Kappa-type opioid receptor (Homo sapiens, UniProt P41145); experiment: kappa opioid receptor activation by imaging – image-based, set 3, SAR follow-up (AID 488833)
T3 sequence (P41145 whole entry): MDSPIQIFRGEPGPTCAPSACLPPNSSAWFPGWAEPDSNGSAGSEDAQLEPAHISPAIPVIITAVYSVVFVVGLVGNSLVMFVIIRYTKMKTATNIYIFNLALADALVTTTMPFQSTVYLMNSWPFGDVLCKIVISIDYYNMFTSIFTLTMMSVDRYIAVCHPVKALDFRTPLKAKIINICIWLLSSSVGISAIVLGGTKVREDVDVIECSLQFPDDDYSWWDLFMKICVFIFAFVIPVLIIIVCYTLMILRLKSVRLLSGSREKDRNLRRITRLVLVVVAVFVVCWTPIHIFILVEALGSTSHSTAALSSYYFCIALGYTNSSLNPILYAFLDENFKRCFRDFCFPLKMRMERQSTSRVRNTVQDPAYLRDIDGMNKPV

[7] = target: Mu-type opioid receptor (Homo sapiens, UniProt P35372); experiment: SAR Analysis of Agonists of the MOR Receptor using an Image-Based Assay - Set 3. [Related pubchem assays (depositor defined):AID1777, AID1785, AID1786, AID1966, AID2133, AID2136, AID2284, AID2285, AID2352]
Mu-type opioid receptor, sequence (P35372 whole entry): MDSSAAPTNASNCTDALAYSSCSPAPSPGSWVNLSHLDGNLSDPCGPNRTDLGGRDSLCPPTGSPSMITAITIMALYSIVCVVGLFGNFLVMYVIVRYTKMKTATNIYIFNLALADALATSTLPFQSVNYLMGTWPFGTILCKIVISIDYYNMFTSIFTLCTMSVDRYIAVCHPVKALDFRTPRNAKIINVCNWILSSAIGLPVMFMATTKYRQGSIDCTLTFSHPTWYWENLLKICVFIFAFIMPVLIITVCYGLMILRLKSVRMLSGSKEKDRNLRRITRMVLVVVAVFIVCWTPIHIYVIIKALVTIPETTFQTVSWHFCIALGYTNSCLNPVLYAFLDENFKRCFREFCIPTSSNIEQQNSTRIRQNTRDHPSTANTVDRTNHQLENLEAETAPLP

[8] = target: Delta-type opioid receptor (Homo sapiens, UniProt P41143); experiment: SAR Analysis of Agonists of the DOR Receptor using an Image-Based Assay - Set 3. [Related pubchem assays (depositor defined):AID1777, AID1786]
Delta-type opioid receptor, sequence (P41143 whole entry): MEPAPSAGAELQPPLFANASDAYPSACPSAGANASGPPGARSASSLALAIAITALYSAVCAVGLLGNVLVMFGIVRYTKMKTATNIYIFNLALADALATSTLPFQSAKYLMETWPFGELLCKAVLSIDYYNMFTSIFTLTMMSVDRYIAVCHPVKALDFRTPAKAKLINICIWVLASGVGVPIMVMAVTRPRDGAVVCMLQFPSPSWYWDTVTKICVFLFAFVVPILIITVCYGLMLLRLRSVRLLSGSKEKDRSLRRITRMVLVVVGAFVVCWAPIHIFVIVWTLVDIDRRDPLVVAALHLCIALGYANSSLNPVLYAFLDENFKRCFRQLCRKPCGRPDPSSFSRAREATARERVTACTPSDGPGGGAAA

[9] = target: T3, Kappa-type opioid receptor; experiment: SAR analysis of small molecule agonists of the kappa opioid receptor via a luminescent beta-arrestin assay - Set 3. [Related pubchem assays (depositor defined):AID1777, AID1785, AID1786, AID1966, AID2133, AID2136, AID2284, AID2500]
[10] = target: T4, G-protein coupled receptor 35 (Homo sapiens, UniProt Q9HC97); experiment: SAR analysis of Agonists of the GPR35 Receptor using an Image-Based Assay - Set 4. [Related pubchem assays (depositor defined):AID2013, AID2026]
T4 sequence (Q9HC97 whole entry): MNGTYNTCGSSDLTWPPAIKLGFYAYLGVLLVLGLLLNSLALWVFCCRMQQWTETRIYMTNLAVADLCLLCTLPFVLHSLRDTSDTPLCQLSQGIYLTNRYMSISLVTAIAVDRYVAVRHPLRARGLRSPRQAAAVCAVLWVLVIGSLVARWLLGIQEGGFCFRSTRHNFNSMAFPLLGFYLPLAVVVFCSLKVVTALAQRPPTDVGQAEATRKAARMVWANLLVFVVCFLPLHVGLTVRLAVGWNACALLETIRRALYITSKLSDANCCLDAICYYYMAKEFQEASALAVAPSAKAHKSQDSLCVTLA

[11] = target: T5, Cannabinoid receptor 1 (Homo sapiens, UniProt P21554); experiment: SAR analysis of agonists of the Cannabinoid Receptor 1 using an Image-Based Assay - Set 4. [Related pubchem assays (depositor defined):AID2013, AID2026]
T5 sequence (P21554 whole entry): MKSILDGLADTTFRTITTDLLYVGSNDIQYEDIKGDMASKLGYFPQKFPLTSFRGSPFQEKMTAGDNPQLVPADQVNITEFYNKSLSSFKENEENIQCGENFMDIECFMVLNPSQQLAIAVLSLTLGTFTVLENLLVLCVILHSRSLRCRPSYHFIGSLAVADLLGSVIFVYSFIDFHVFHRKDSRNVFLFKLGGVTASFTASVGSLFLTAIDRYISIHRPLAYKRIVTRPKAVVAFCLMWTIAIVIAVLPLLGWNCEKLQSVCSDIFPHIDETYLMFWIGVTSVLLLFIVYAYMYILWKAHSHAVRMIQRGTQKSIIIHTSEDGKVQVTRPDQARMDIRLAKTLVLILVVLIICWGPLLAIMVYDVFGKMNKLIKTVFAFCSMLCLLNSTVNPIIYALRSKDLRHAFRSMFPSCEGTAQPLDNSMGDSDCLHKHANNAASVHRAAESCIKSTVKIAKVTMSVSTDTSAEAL

[12] = target: T4, G-protein coupled receptor 35; experiment: SAR analysis of Antagonists of the GPR35 Receptor using an Image-Based Assay - Set 6. [Related pubchem assays (depositor defined):AID2013, AID2026]
[13] = target: T5, Cannabinoid receptor 1; experiment: SAR analysis of antagonists of the Cannabinoid Receptor 1 using an Image-Based Assay - Set 4. [Related pubchem assays (depositor defined):AID2013, AID2026]
[14] = target: G-protein coupled receptor 55 (Homo sapiens, UniProt Q9Y2T6); experiment: SAR Analysis of Selective Antagonists of GPR55 using an Image-Based Assay - Set 4. [Related pubchem assays (depositor defined):AID2013, AID2026];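 note: antagonism of response to 5 µM lysophosphatidylinositol agonist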
G-protein coupled receptor 55, sequence (Q9Y2T6 whole entry): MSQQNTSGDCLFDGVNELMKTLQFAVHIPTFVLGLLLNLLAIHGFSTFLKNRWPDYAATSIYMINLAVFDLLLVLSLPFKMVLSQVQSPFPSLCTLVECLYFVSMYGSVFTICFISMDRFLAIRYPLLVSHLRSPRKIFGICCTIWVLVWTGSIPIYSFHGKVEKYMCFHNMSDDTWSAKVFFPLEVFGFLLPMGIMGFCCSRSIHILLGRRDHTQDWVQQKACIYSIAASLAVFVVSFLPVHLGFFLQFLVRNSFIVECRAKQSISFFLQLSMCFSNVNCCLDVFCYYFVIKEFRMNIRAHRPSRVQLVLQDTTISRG

[15] = target: T6, Cannabinoid receptor 2 (Homo sapiens, UniProt P34972); experiment: SAR analysis of antagonists of the Cannabinoid Receptor 2 using an Image-Based Assay - Set 3. [Related pubchem assays (depositor defined):AID2013, AID2026]
T6 sequence (P34972 whole entry): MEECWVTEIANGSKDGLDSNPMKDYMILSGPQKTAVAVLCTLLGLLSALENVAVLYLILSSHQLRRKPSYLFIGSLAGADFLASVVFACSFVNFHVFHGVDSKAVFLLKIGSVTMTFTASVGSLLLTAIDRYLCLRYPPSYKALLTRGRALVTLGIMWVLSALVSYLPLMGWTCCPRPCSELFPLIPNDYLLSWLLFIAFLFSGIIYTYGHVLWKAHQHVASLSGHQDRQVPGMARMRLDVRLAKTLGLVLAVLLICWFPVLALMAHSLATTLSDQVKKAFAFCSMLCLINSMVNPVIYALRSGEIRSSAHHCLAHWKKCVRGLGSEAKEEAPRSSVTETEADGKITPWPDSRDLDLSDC

[16] = target: T6, Cannabinoid receptor 2; experiment: SAR analysis of agonists of the Cannabinoid Receptor 2 using an Image-Based Assay - Set 3. [Related pubchem assays (depositor defined):AID2013, AID2026]
[17] = target: T7, Type-1 angiotensin II receptor (Homo sapiens, UniProt P30556); experiment: agonist activity at AGTR1 – cell-based, uHTS hits, selectivity assay for APJ receptor agonist project, dose response (AID 488865);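 note: beta-arrestin recruitment to AT1 measured by enzyme fragment complementation luminescence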
T7 sequence (P30556 whole entry): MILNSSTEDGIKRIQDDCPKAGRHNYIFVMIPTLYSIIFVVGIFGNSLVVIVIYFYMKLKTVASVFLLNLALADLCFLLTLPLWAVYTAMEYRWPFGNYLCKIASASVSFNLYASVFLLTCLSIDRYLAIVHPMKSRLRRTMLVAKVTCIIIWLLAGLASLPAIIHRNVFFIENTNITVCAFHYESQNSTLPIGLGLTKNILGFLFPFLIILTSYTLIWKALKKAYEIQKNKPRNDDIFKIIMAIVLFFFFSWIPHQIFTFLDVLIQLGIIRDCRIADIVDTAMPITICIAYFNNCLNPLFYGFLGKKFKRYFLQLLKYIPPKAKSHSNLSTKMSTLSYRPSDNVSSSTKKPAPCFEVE
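Throughout, for CC50: cells exposed to compound for 72 hours before luminescence readout.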

Question: With `Cc1ccc(C)c(Sc2ccc(NC(=O)CCl)cc2)c1` as the molecule, how does the IC50 [1] read?
Answer: 0.743 µM (active)

Question: What about the CC50 [2] of the same molecule?
Answer: 7.6 µM (active)

Question: And the AC50 [3]?
Answer: 2.3 µM (active)

Question: And the EC50 [4]?
Answer: 0.602 µM (active)

Question: Which AC50 [5] does the source give for `O=C(Nc1ccccc1N1CCOCC1)C1CCN(S(=O)(=O)c2ccc(F)cc2)CC1` here?
Answer: > 350 µM (inactive)

Question: What does the source list for `FC(F)(F)c1cc(CSc2nnc(-c3ccccn3)n2Cc2cccs2)ccc1Cl`?
Answer: EC50 [6]: 1.38 µM (active); EC50 [7]: > 32 µM (inactive); EC50 [8]: > 32 µM (inactive); EC50 [9]: 0.432 µM (active)

Question: With `Cc1nnc(-c2ccccc2)c2cn(-c3ccc(Cl)cc3)nc12` as the molecule, how does the EC50 [10] read?
Answer: > 32 µM (inactive)

Question: And the EC50 [11]?
Answer: > 32 µM (inactive)

Question: What about the IC50 [12] of the same molecule?
Answer: 23 µM (inactive)

Question: And the IC50 [13]?
Answer: 3.63 µM (active)

Question: What about the IC50 [14] of the same molecule?
Answer: 1.77 µM (active)

Question: What about the IC50 [15] of the same molecule?
Answer: > 32 µM (inactive)

Question: What about the EC50 [16] of the same molecule?
Answer: > 32 µM (inactive)

Question: With `Cc1ccc(/C=N/NC(=O)CSc2nnc(-c3ccccc3)n2-c2ccc(Cl)cc2)o1` as the molecule, how does the EC50 [17] read?
Answer: > 100 µM (inactive)
